# Measured values taken from ChEMBL document CHEMBL2413072, “Synthesis and in vitro anticancer studies of novel C-2 arylidene congeners of lantadenes” (2013).
# Legend:
# Assay type in all cases: functional
# [1] = tested on: K562; test: Growth inhibition of human K562 cells assessed as cell growth at 10^-6 M by sulforhodamine B assay; details: read-out: Activity
# [2] = tested on: SF-295; test: Growth inhibition of human SF295 cells assessed as cell growth at 10^-6 M by sulforhodamine B assay; details: read-out: Activity
# [3] = tested on: HOP-92; test: Growth inhibition of human HOP92 cells assessed as cell growth at 10^-6 M by sulforhodamine B assay; details: read-out: Activity
# [4] = Growth inhibition of human HCC2998 cells assessed as cell growth at 10^-8 M by sulforhodamine B assay; details: HCC 2998, read-out: Activity
# [5] = tested on: HCT-15; test: Growth inhibition of human HCT15 cells assessed as cell growth at 10^-6 M by sulforhodamine B assay; details: read-out: Activity
# [6] = tested on: U-251; test: Growth inhibition of human U251 cells assessed as cell growth at 10^-6 M by sulforhodamine B assay; details: read-out: Activity
# [7] = tested on: SF-268; test: Growth inhibition of human SF268 cells assessed as cell growth at 10^-7 M by sulforhodamine B assay; details: read-out: Activity
# [8] = tested on: A498; test: Growth inhibition of human A498 cells assessed as cell growth at 10^-4 M by sulforhodamine B assay; details: read-out: Activity
# [9] = tested on: HCT-116; test: Growth inhibition of human HCT116 cells assessed as cell growth at 10^-8 M by sulforhodamine B assay; details: read-out: Activity
# [10] = tested on: OVCAR-3; test: Growth inhibition of human OVCAR3 cells assessed as cell growth at 10^-4 M by sulforhodamine B assay; details: read-out: Activity
# [11] = tested on: MDA-MB-231; test: Growth inhibition of human MDA-MB-231 cells by sulforhodamine B assay
# [12] = tested on: OVCAR-8; test: Growth inhibition of human OVCAR8 cells assessed as cell growth at 10^-4 M by sulforhodamine B assay; details: read-out: Activity
# [13] = tested on: SR; test: Growth inhibition of human SR cells by sulforhodamine B assay
# [14] = tested on: MDA-MB-231; test: Growth inhibition of human MDA-MB-231 cells assessed as cell growth at 10^-8 M by sulforhodamine B assay; details: read-out: Activity
# [15] = tested on: 786-0; test: Growth inhibition of human 786-0 cells assessed as cell growth at 10^-8 M by sulforhodamine B assay; details: read-out: Activity
# [16] = tested on: NCI-H226; test: Growth inhibition of human NCI-H226 cells assessed as cell growth at 10^-7 M by sulforhodamine B assay; details: read-out: Activity
# [17] = tested on: DU-145; test: Growth inhibition of human DU145 cells assessed as cell growth at 10^-6 M by sulforhodamine B assay; details: read-out: Activity
# [18] = tested on: MOLT-4; test: Growth inhibition of human MOLT4 cells assessed as cell growth at 10^-7 M by sulforhodamine B assay; details: read-out: Activity
# [19] = tested on: K562; test: Growth inhibition of human K562 cells assessed as cell growth at 10^-7 M by sulforhodamine B assay; details: read-out: Activity
# [20] = tested on: UO-31; test: Growth inhibition of human UO31 cells assessed as cell growth at 10^-8 M by sulforhodamine B assay; details: read-out: Activity
# [21] = tested on: OVCAR-5; test: Growth inhibition of human OVCAR5 cells assessed as cell growth at 10^-8 M by sulforhodamine B assay; details: read-out: Activity
# [22] = tested on: SK-OV-3; test: Growth inhibition of human SKOV3 cells assessed as cell growth at 10^-7 M by sulforhodamine B assay; details: read-out: Activity
# [23] = tested on: T47D; test: Growth inhibition of human T47D cells assessed as cell growth at 10^-7 M by sulforhodamine B assay; details: read-out: Activity
# [24] = tested on: MCF7; test: Growth inhibition of human MCF7 cells assessed as cell growth at 10^-6 M by sulforhodamine B assay; details: read-out: Activity
# [25] = tested on: Malme-3M; test: Growth inhibition of human MALME-3M cells assessed as cell growth at 10^-7 M by sulforhodamine B assay; details: read-out: Activity
# [26] = tested on: 786-0; test: Growth inhibition of human 786-0 cells by sulforhodamine B assay
# [27] = tested on: SF-539; test: Growth inhibition of human SF539 cells assessed as cell growth at 10^-7 M by sulforhodamine B assay; details: read-out: Activity
# [28] = tested on: NCI-H322M; test: Growth inhibition of human NCI-H322M cells assessed as cell growth at 10^-7 M by sulforhodamine B assay; details: read-out: Activity
# [29] = tested on: PC-3; test: Growth inhibition of human PC3 cells by sulforhodamine B assay
# [30] = tested on: 786-0; test: Growth inhibition of human 786-0 cells assessed as cell growth at 10^-6 M by sulforhodamine B assay; details: read-out: Activity
# [31] = Growth inhibition of human NCI-ADR-RES cells assessed as cell growth at 10^-8 M by sulforhodamine B assay; details: read-out: Activity
# [32] = tested on: PC-3; test: Growth inhibition of human PC3 cells assessed as cell growth at 10^-7 M by sulforhodamine B assay; details: read-out: Activity
# [33] = Growth inhibition of human NCI-ADR-RES cells assessed as cell growth at 10^-4 M by sulforhodamine B assay; details: read-out: Activity
# [34] = tested on: SW-620; test: Growth inhibition of human SW620 cells assessed as cell growth at 10^-6 M by sulforhodamine B assay; details: read-out: Activity
# [35] = tested on: NCI-H322M; test: Growth inhibition of human NCI-H322M cells assessed as cell growth at 10^-6 M by sulforhodamine B assay; details: read-out: Activity
# [36] = tested on: NCI-H522; test: Growth inhibition of human NCI-H522 cells assessed as cell growth at 10^-6 M by sulforhodamine B assay; details: read-out: Activity
# [37] = tested on: IGROV-1; test: Growth inhibition of human IGROV1 cells by sulforhodamine B assay
# [38] = tested on: U-251; test: Growth inhibition of human U251 cells by sulforhodamine B assay
# [39] = tested on: RXF 393; test: Growth inhibition of human RXF393 cells assessed as cell growth at 10^-7 M by sulforhodamine B assay; details: read-out: Activity
# [40] = tested on: MDA-MB-468; test: Growth inhibition of human MDA-MB-468 cells assessed as cell growth at 10^-8 M by sulforhodamine B assay; details: read-out: Activity
# [41] = tested on: UO-31; test: Growth inhibition of human UO31 cells assessed as cell growth at 10^-6 M by sulforhodamine B assay; details: read-out: Activity
# [42] = tested on: NCI-H522; test: Growth inhibition of human NCI-H522 cells assessed as cell growth at 10^-8 M by sulforhodamine B assay; details: read-out: Activity
# [43] = read-out: LC50 (the source's name)
# [44] = read-out: pLC50 (the source's name) (converted)
smiles,measurement,setting,value
CC1(C)C[C@@H](O)[C@]2(C(=O)O)CC[C@]3(C)C(=CC[C@@H]4[C@@]5(C)C/C(=C\C=C\c6ccccc6)C(=O)C(C)(C)[C@@H]5CC[C@]43C)[C@@H]2C1,growth at 1 µM,[1],98%
same,growth at 1 µM,[2],88%
same,growth at 1 µM,[3],76%
same,growth at 0.01 µM,[4],92%
same,growth at 1 µM,[5],95%
same,growth at 1 µM,[6],85%
same,growth at 0.1 µM,[7],91%
same,growth at 100 µM,[8],-97%
same,growth at 0.01 µM,[9],100%
same,growth at 100 µM,[10],-90%
same,GI50,[11]; read-out: GI50,2.02 µM
same,CC50,[11]; [43],12.5 µM
same,TGI,[11]; read-out: TGI,4.68 µM
same,GI50,[11]; read-out: pGI50 (converted),2.04 µM
same,CC50,[11]; [44],12.6 µM
same,TGI,[11]; read-out: pTGI (converted),4.68 µM
same,growth at 100 µM,[12],-67%
same,GI50,[13]; read-out: GI50,2.48 µM
same,CC50,[13]; [43],> 100 µM
same,TGI,[13]; read-out: TGI,6.91 µM
same,GI50,[13]; read-out: pGI50 (converted),2.45 µM
same,CC50,[13]; [44],> 100 µM
same,TGI,[13]; read-out: pTGI (converted),6.92 µM
same,growth at 0.01 µM,[14],108%
same,growth at 0.01 µM,[15],101%
same,growth at 0.1 µM,[16],92%
same,growth at 1 µM,[17],101%
same,growth at 0.1 µM,[18],97%
same,growth at 0.1 µM,[19],102%
same,growth at 0.01 µM,[20],88%
same,growth at 0.01 µM,[21],103%
same,growth at 0.1 µM,[22],102%
same,growth at 0.1 µM,[23],96%
same,growth at 1 µM,[24],95%
same,growth at 0.1 µM,[25],93%
same,GI50,[26]; read-out: GI50,3.44 µM
same,CC50,[26]; [43],43.1 µM
same,TGI,[26]; read-out: TGI,12.8 µM
same,GI50,[26]; read-out: pGI50 (converted),3.47 µM
same,CC50,[26]; [44],42.7 µM
same,TGI,[26]; read-out: pTGI (converted),12.9 µM
same,growth at 0.1 µM,[27],92%
same,growth at 0.1 µM,[28],96%
same,GI50,[29]; read-out: GI50,3.03 µM
same,CC50,[29]; [43],63.7 µM
same,TGI,[29]; read-out: TGI,16.3 µM
same,GI50,[29]; read-out: pGI50 (converted),3.02 µM
same,CC50,[29]; [44],63.1 µM
same,TGI,[29]; read-out: pTGI (converted),16.2 µM
same,growth at 1 µM,[30],96%
same,growth at 0.01 µM,[31],107%
same,growth at 0.1 µM,[32],96%
same,growth at 100 µM,[33],-87%
same,growth at 1 µM,[34],91%
same,growth at 1 µM,[35],94%
same,growth at 1 µM,[36],94%
same,GI50,[37]; read-out: GI50,4.14 µM
same,CC50,[37]; [43],73.8 µM
same,TGI,[37]; read-out: TGI,14.4 µM
same,GI50,[37]; read-out: pGI50 (converted),4.17 µM
same,CC50,[37]; [44],74.1 µM
same,TGI,[37]; read-out: pTGI (converted),14.5 µM
same,GI50,[38]; read-out: GI50,2.58 µM
same,CC50,[38]; [43],43.2 µM
same,TGI,[38]; read-out: TGI,10.1 µM
same,GI50,[38]; read-out: pGI50 (converted),2.57 µM
same,CC50,[38]; [44],43.7 µM
same,TGI,[38]; read-out: pTGI (converted),10.2 µM
same,growth at 0.1 µM,[39],94%
same,growth at 0.01 µM,[40],95%
same,growth at 1 µM,[41],92%
same,growth at 0.01 µM,[42],89%
